From patent US9855243B2, “Topical anti-inflammatory pharmaceutical composition with zileuton cream formulation” (Qurient Co., Ltd., priority 2013, dated 2018)
Values joined by “and” are separate entries in the source; they are usually repeats but may differ in a detail not shown here. Equal values may be shown once.

How the values were obtained:
[1] = Screening of excipient suitability: zileuton with excipient, stability at 50° C.; assay type: physicochemical
Description: Suitability of components generally used in cream formulation with respect to zieluton was screened, prior to preparing a zieluton cream formulation. […] That is, the stability of excipient at 50° C. was tested.

[2] = Solution stability test of zileuton in solvents (TRS %); assay type: physicochemical; conditions: for TRS increase rate %: Day 0 to Day 8
Description: In the solution stability test, suitability with solvents for solubilizing zileuton (ethanol, PEG400, propylene glycol, hexylene glycol, capryol 90, benzyl alcohol, water) was screened.
As a result, as illustrated in Tables 2 and 3 below, most of the solvents were suitable to zileuton under the 25° C. condition, but were unstable under the condition of 40° C. or 70° C.

[3] = Solubility of zileuton in solvents at 25° C.(RT); assay type: physicochemical
Description: Furthermore, the suitability of other various solvents for solubilizing zileuton was screened. […] Especially, hydrophilics solvents such as alcohols may be preferably used.

[4] = tested on: inflammation reaction of asthma; conditions: clinical trials; oral drug; cited from earlier work
[5] = tested on: liver functions of the patient; conditions: oral administration; cited from earlier work
[6] = Zileuton API alone, 2 weeks, 50° C.
[7] = Zileuton API alone, 4 weeks, 50° C.
[8] = with Carbomer 1:1, 2 weeks, 50° C.
[9] = with Carbomer 1:1, 4 weeks, 50° C.
[10] = with Ceteareth-20 1:1, 2 weeks, 50° C.
[11] = with Ceteareth-20 1:1, 4 weeks, 50° C.
[12] = with Hypromellose (HPMC) 1:1, 2 weeks, 50° C.
[13] = with Hypromellose (HPMC) 1:1, 4 weeks, 50° C.
[14] = with Hypromellose (HPMC) 1:1, Day 0
[15] = with Phospholipon 90H 1:1, 2 weeks, 50° C.
[16] = with Phospholipon 90H 1:1, 4 weeks, 50° C.
[17] = with Phospholipon 90H 1:1, Day 0
[18] = with Stearyl alcohol 1:1, 2 weeks, 50° C.
[19] = with Stearyl alcohol 1:1, 4 weeks, 50° C.
[20] = with Stearyl alcohol 1:1, Day 0
[21] = with Titanium dioxide 1:1, 2 weeks, 50° C.
[22] = with Titanium dioxide 1:1, 4 weeks, 50° C.
[23] = with Titanium dioxide 1:1, Day 0
[24] = with White wax 1:1, 2 weeks, 50° C.
[25] = with White wax 1:1, 4 weeks, 50° C.

CC(c1cc2ccccc2s1)N(O)C(N)=O (racemic) [Zileuton, (±)-1-(1-(benzo [b]thiophen-2-yl)ethyl)-1-hydroxyurea]
Appearance [1, 6]: White | TRS. % [1, 6]: 3.311% and 3.006% | Appearance [1, 7]: White | TRS. % [1, 7]: 2.711% and 2.493% | TRS. % ([1]; Zileuton API alone, Day 0): 2.378% | Appearance [1, 8]: White | TRS. % [1, 8]: 2.385% and 3.067% | Appearance [1, 9]: White | TRS. % [1, 9]: 2.330% and 2.403% | Appearance ([1]; with Carbomer 1:1, Day 0): White | TRS. % ([1]; with Carbomer 1:1, Day 0): 3.326% | Appearance [1, 10]: White | TRS. % [1, 10]: 3.445% and 3.365% | Appearance [1, 11]: White | TRS. % [1, 11]: 3.632% and 3.549% | Appearance ([1]; with Ceteareth-20 1:1, Day 0): White | TRS. % ([1]; with Ceteareth-20 1:1, Day 0): 2.394% | Appearance [1, 12]: White | TRS. % [1, 12]: 2.864% and 2.949% | Appearance [1, 13]: White | TRS. % [1, 13]: 2.555% and 2.580% | Appearance [1, 14]: White | TRS. % [1, 14]: 2.610% | Appearance [1, 15]: White | TRS. % [1, 15]: 2.820% and 2.846% | Appearance [1, 16]: White | TRS. % [1, 16]: 2.557% and 2.429% | Appearance [1, 17]: White | TRS. % [1, 17]: 2.400% | Appearance [1, 18]: White | TRS. % [1, 18]: 2.935% and 2.796% | Appearance [1, 19]: White | TRS. % [1, 19]: 2.512% and 2.567% | Appearance [1, 20]: White | TRS. % [1, 20]: 3.311% | Appearance [1, 21]: White | TRS. % [1, 21]: 2.803% and 2.839% | Appearance [1, 22]: White | TRS. % [1, 22]: 2.507% and 2.504% | Appearance [1, 23]: White | TRS. % [1, 23]: 2.344% | Appearance [1, 24]: White | TRS. % [1, 24]: 2.863% and 2.843% | Appearance [1, 25]: White | TRS. % [1, 25]: 2.459% and 2.381% | Appearance ([1]; with White wax 1:1, Day 0): White | TRS. % ([1]; with White wax 1:1, Day 0): 2.372% | TRS (%) ([2]; in Benzyl alcohol, 25° C., Day 0): 1.642% | TRS increase rate % ([2]; in Benzyl alcohol, 25° C.): 0.381% | TRS (%) ([2]; in Benzyl alcohol, 25° C., Day 1): 0.869% | TRS (%) ([2]; in Benzyl alcohol, 25° C., Day 3): 1.806% | TRS (%) ([2]; in Benzyl alcohol, 25° C., Day 8): 2.023% | TRS (%) ([2]; in Benzyl alcohol, 70° C., Day 0): 1.642% | TRS increase rate % ([2]; in Benzyl alcohol, 70° C.): 22.608% | TRS (%) ([2]; in Benzyl alcohol, 70° C., Day 1): 11.350% | TRS (%) ([2]; in Benzyl alcohol, 70° C., Day 3): 20.397% | TRS (%) ([2]; in Benzyl alcohol, 70° C., Day 8): 24.250% | TRS (%) ([2]; in Capryol 90, 25° C., Day 0): 1.623% | TRS increase rate % ([2]; in Capryol 90, 25° C.): 0.578% | TRS (%) ([2]; in Capryol 90, 25° C., Day 1): 1.444% | TRS (%) ([2]; in Capryol 90, 25° C., Day 3): 1.478% | TRS (%) ([2]; in Capryol 90, 25° C., Day 8): 2.201% | TRS (%) ([2]; in Capryol 90, 70° C., Day 0): 1.623% | TRS increase rate % ([2]; in Capryol 90, 70° C.): 74.822% | TRS (%) ([2]; in Capryol 90, 70° C., Day 1): 10.312% | TRS (%) ([2]; in Capryol 90, 70° C., Day 3): 39.603% | TRS (%) ([2]; in Capryol 90, 70° C., Day 8): 76.445% | TRS (%) ([2]; in Ethanol, 25° C., Day 0): 1.255% | TRS increase rate % ([2]; in Ethanol, 25° C.): 0.882% | TRS (%) ([2]; in Ethanol, 25° C., Day 1): 1.014% | TRS (%) ([2]; in Ethanol, 25° C., Day 3): 1.951% | TRS (%) ([2]; in Ethanol, 25° C., Day 8): 2.137% | TRS (%) ([2]; in Ethanol, 40° C., Day 0): 1.255% | TRS increase rate % ([2]; in Ethanol, 40° C.): 3.449% | TRS (%) ([2]; in Ethanol, 40° C., Day 1): 1.778% | TRS (%) ([2]; in Ethanol, 40° C., Day 3): 2.375% | TRS (%) ([2]; in Ethanol, 40° C., Day 8): 4.704% | TRS (%) ([2]; in Hexylene glycol, 25° C., Day 0): 1.505% | TRS increase rate % ([2]; in Hexylene glycol, 25° C.): 0.475% | TRS (%) ([2]; in Hexylene glycol, 25° C., Day 1): 1.448% | TRS (%) ([2]; in Hexylene glycol, 25° C., Day 3): 1.583% | TRS (%) ([2]; in Hexylene glycol, 25° C., Day 8): 1.980% | TRS (%) ([2]; in Hexylene glycol, 70° C., Day 0): 1.505% | TRS increase rate % ([2]; in Hexylene glycol, 70° C.): 58.847% | TRS (%) ([2]; in Hexylene glycol, 70° C., Day 1): 8.061% | TRS (%) ([2]; in Hexylene glycol, 70° C., Day 3): 29.999% | TRS (%) ([2]; in Hexylene glycol, 70° C., Day 8): 60.352% | TRS (%) ([2]; in Polyethylene glycol (PEG-400), 25° C., Day 0): 1.427% | TRS increase rate % ([2]; in Polyethylene glycol (PEG-400), 25° C.): 2.638% | TRS (%) ([2]; in Polyethylene glycol (PEG-400), 25° C., Day 1): 1.491% | TRS (%) ([2]; in Polyethylene glycol (PEG-400), 25° C., Day 3): 2.897% | TRS (%) ([2]; in Polyethylene glycol (PEG-400), 25° C., Day 8): 4.065% | TRS (%) ([2]; in Polyethylene glycol (PEG-400), 70° C., Day 0): 1.427% | TRS increase rate % ([2]; in Polyethylene glycol (PEG-400), 70° C.): 95.715% | TRS (%) ([2]; in Polyethylene glycol (PEG-400), 70° C., Day 1): 43.725% | TRS (%) ([2]; in Polyethylene glycol (PEG-400), 70° C., Day 3): 94.366% | TRS (%) ([2]; in Polyethylene glycol (PEG-400), 70° C., Day 8): 97.142% | TRS (%) ([2]; in Propylene glycol, 25° C., Day 0): 1.457% | TRS increase rate % ([2]; in Propylene glycol, 25° C.): 0.675% | TRS (%) ([2]; in Propylene glycol, 25° C., Day 1): 1.624% | TRS (%) ([2]; in Propylene glycol, 25° C., Day 3): 1.478% | TRS (%) ([2]; in Propylene glycol, 25° C., Day 8): 2.132% | TRS (%) ([2]; in Propylene glycol, 70° C., Day 0): 1.457% | TRS increase rate % ([2]; in Propylene glycol, 70° C.): 94.868% | TRS (%) ([2]; in Propylene glycol, 70° C., Day 1): 26.382% | TRS (%) ([2]; in Propylene glycol, 70° C., Day 3): 82.228% | TRS (%) ([2]; in Propylene glycol, 70° C., Day 8): 96.325% | TRS (%) ([2]; in Water, 25° C., Day 0): 1.424% | TRS increase rate % ([2]; in Water, 25° C.): 0.541% | TRS (%) ([2]; in Water, 25° C., Day 1): 1.879% | TRS (%) ([2]; in Water, 25° C., Day 3): 1.816% | TRS (%) ([2]; in Water, 25° C., Day 8): 1.965% | TRS (%) ([2]; in Water, 70° C., Day 0): 1.424% | TRS increase rate % ([2]; in Water, 70° C.): 90.570% | TRS (%) ([2]; in Water, 70° C., Day 1): 35.171% | TRS (%) ([2]; in Water, 70° C., Day 3): 80.268% | TRS (%) ([2]; in Water, 70° C., Day 8): 91.994% | Zileuton Solubility at RT (% w/w) ([3]; in Caprylocaproyl Polyoxyl-8 Glycerides/Labrasol): 10.81-11.42 % w/w | Zileuton Solubility at RT (% w/w) ([3]; in Castor Oil): <0.16 % w/w | Zileuton Solubility at RT (% w/w) ([3]; in Cyclomethicone): <0.06 % w/w | Zileuton Solubility at RT (% w/w) ([3]; in Diethylene Glycol Monoethyl Ether/Transcutol P): 17.11-17.62 % w/w | Zileuton Solubility at RT (% w/w) ([3]; in Dimethicone): <0.06 % w/w | Zileuton Solubility at RT (% w/w) ([3]; in Isopropyl Myristate): <0.20 % w/w | Zileuton Solubility at RT (% w/w) ([3]; in Light Mineral Oil): <0.04 % w/w | Zileuton Solubility at RT (% w/w) ([3]; in Medium Chain Triglycerides): <0.21 % w/w | Zileuton Solubility at RT (% w/w) ([3]; in Olive Oil): <0.07 % w/w | Zileuton Solubility at RT (% w/w) ([3]; in Polyglyceryl-6 Dioleate): <0.06 % w/w | Zileuton Solubility at RT (% w/w) ([3]; in Polyglyceryl-10 Mono/Dioleate/Caprol PGE-860): <0.16 % w/w | Zileuton Solubility at RT (% w/w) ([3]; in Polyoxyethylene (20) Sorbitan Monolaurate/Tween 20): 8.42-9.24 % w/w | Zileuton Solubility at RT (% w/w) ([3]; in Polyoxyl 40 Hydrogenated Castor Oil/Kolliphor RH40): <0.37 % w/w | Zileuton Solubility at RT (% w/w) ([3]; in Propylene Glycol Dicaprylocaprate): <0.20 % w/w | Zileuton Solubility at RT (% w/w) ([3]; in Safflower Oil): <0.07 % w/w | Zileuton Solubility at RT (% w/w) ([3]; in Squalane): <0.04 % w/w | Zileuton Solubility at RT (% w/w) ([3]; in Triacetin): 0.50-0.72 % w/w | Anti-inflammatory effect in asthma [4]: effective anti-inflammatory pharmaceutical effect | Hepatotoxicity [5]: significant hepatotoxicity
